Measured values from publication PMC8232621, “Antimicrobial Activity of a Library of Thioxanthones and Their Potential as Efflux Pump Inhibitors” (Pharmaceuticals, 2021).
Values joined by “and” are separate entries in the source; they are usually repeats but may differ in a detail not shown here. Identical values can stand only once.

Experiments:
SE03 [1] = assay: Real-time ethidium bromide accumulation assay (efflux pump inhibition); format: cell-based, Salmonella enterica serovar Typhimurium SL1344; details: compounds 50 µM (compound 12 at 17 µM), CCCP 25 µM, minute 60, EB 1 µg/mL
Method: (§1) The relative fluorescence index (RFI) was calculated based on the means of relative fluorescence units, and theses RFIs are depicted in Table 4.
(§2) The compounds were evaluated for their ability to inhibit the efflux of EB, an efflux pump substrate, in Salmonella enterica serovar Typhimurium SE03 and S. aureus 272123 strains, through real-time fluorimetry, monitoring the intracellular accumulation of EB, an efflux pump substrate. This was determined by the automated method using a CLARIOstar Plus plate reader (BMG Labtech, Ortenberg, Germany). Reserpine and CCCP were applied at 25 µM as positive controls, and the solvent DMSO was applied at 1% v/v. The bacterial strains were incubated in an appropriate culture media (TSB–S. aureus 272123; LB-B–SE03) at 37 °C until they reached an optical density (OD) of 0.6 at 600 nm. The culture was centrifuged at 13,000× g for 3 min, and the pellet was washed and resuspended with phosphate buffered saline (PBS, pH 7.4). The suspension was centrifuged again in the same conditions and resuspended in PBS.
(§3) Then, 50 µL of this solution were transferred into a 96-well black microtiter plate (Greiner Bio-One Hungary Kft, Mosonmagyaróvár, Fertősor, Hungary), and 50 µL of bacterial suspension (OD600 = 0.6) were added to each well. The plates were placed into the CLARIOstar plate reader, and the fluorescence was monitored at excitation and emission wavelengths of 530 nm and 600 nm, respectively, every minute for one hour on a real-time basis. From the real-time data, the activity of the compounds, namely the relative fluorescence index (RFI) of the last time point (minute 60) of the EB accumulation assay, was calculated according to the following equation:(1) RFI=RFtreated−RFuntreated/RFuntreated where RFtreated is the relative fluorescence (RF) at the last time point of EB accumulation curve in the presence of the compound, and RFuntreated is the RF at the last time point of the EB accumulation curve of the untreated control, having only the solvent (DMSO) control. The accumulation curves were designed using Microsoft Excel®. The samples were tested in triplicate, and the RFI presented comes from the average of these three values. The accumulation graphs present the mean of the RF at the last time point. The standard deviation (SD) was calculated automatically and included in the RF graphs.

E. coli SA/2 = assay: Synergy with cefotaxime (antibiotic MIC in presence of compound); format: cell-based
Text: (§4) The referred library of thioxanthones was initially tested for their antimicrobial activity against six bacterial strains: the Gram-negative Escherichia coli ATCC 25922, Pseudomonas aeruginosa ATCC 27853 and Salmonella enterica serovar Typhimurium SL1344 (SE03), with the acrA gene deleted, and the Gram-positive Staphylococcus aureus ATCC 29213, Enterococcus faecalis ATCC 29212 and the methicillin and ofloxacin-resistant clinical isolate S. aureus 272123. For the synergy assay, two clinically relevant isolates were used: the extended-spectrum β-lactamase (ESBL)-producing E. coli SA/2 [23] and the vancomycin-resistant E. faecalis (VRE) B3/101 [23]. The antibiotics used were cefotaxime (CTX) and vancomycin (VAN), respectively.
The combined effect of the compounds and clinically relevant antimicrobial drugs was evaluated by determining the antibiotic’s MIC in the presence of each compound. […] The antibiotic tested was serially diluted, whereas the concentration of each compound was kept fixed. […]

S. aureus 272123 [2] = assay: Antibacterial activity, broth microdilution MIC; format: cell-based; details: Staphylococcus aureus, 272123, read-out: Minimum Inhibitory Concentration (MIC)
Text: as §4
(§5) The minimum inhibitory concentration (MIC) for each compound was determined by broth microdilution method in a 96-well plate according to the Clinical and Laboratory Standard Institute (CLSI) guidelines. The medium used was MHB II. The concentrations tested ranged from 100 µM to 0.195 µM and were prepared from a stock solution of 10 mM in DMSO, for S. aureus 272123 and SE03; for the other strains, the concentrations tested ranged from 64 µg/mL to 4 µg/mL and were prepared from a stock solution of 10 mg/mL in DMSO. DMSO was used in subinhibitory concentrations (1% v/v). The MIC was determined by visual inspection.

SE03 [3] = assay: Antibacterial activity, broth microdilution MIC; format: cell-based, Salmonella enterica serovar Typhimurium SL1344; details: Salmonella enterica, read-out: Minimum Inhibitory Concentration (MIC)
Text: as §4, §5

S. aureus 272123 [4] = assay: Real-time ethidium bromide accumulation assay (efflux pump inhibition); format: cell-based, Staphylococcus aureus; parameters: key: RFI = (RFtreated − RFuntreated)/RFuntreated at minute 60; details: compounds 50 µM, reserpine 25 µM, minute 60, EB 1 µg/mL
Method: as §1, §2, §3

S. aureus ATCC 29213 = assay: Inhibition of biofilm formation (crystal violet); format: cell-based; details: Staphylococcus aureus, ATCC29213, 48 h, S. aureus ATCC 29213, compounds 100 µM (compound 12 at 50 µM), read-out: Biofilm Inhibition (%) ± SD
S. aureus 272123 [5] = assay: Inhibition of biofilm formation (crystal violet); format: cell-based, Staphylococcus aureus; details: Staphylococcus aureus; S. aureus 272123; compounds 100 µM (compound 12 at 50 µM); 48 h; read-out: Biofilm Inhibition (%) ± SD
Method: Efflux mechanisms are one of the factors that can lead to biofilm-mediated resistance, along with slow growth and reduced penetration due to production of extracellular polysaccharides. […] Additionally, they can also modulate QS, through an influence in the transport of QS signal molecules. Thioxanthones 2–18 were tested for their potential for inhibiting biofilm formation by S. aureus ATCC 29213 and the multi-resistant S. aureus 272123. The biofilm inhibition, presented in percentage (%), was calculated based on the mean of absorbance units. Reserpine, which has previously been described as both an efflux pump inhibitor and an inhibitor of biofilm formation in Gram-positive bacteria was used as control in both strains.
The thioxanthone derivatives were tested for their ability to decrease the formation of biofilm. The bacterial strains used were the Gram-positive S. aureus […] and S. aureus 272123. The detection of the biofilm formation was carried out using the dye crystal violet (CV; 0.1% v/v). The initial inoculum was incubated in TSB overnight, and then diluted to an OD600 of 0.1. […] This meant that compound 12 was added at 50 µM, while the rest of the compounds were added at the concentration of 100 µM. The final volume in each well was 200 µL. Reserpine was used as a positive control, as it was the same compound used in the efflux pump inhibition assay and it has shown activity in the inhibition of biofilm formation in S. aureus strains. The plates were incubated at 30 °C for 48 h, with gentle stirring (100 rpm). After this incubation period, the TSB medium was discarded, and the plates were washed with tap water to remove unattached cells. Afterwards, 200 µL of a 0.1% v/v CV solution were added to the wells and incubated for 15 min at room temperature. Then, the CV solution was removed from the wells, and the plates were washed again with tap water, and 200 µL of a 70% ethanol solution was added to the wells. The biofilm formation was determined by measuring the OD600 using a Multiscan EX ELISA plate reader (Thermo Labsystems, Cheshire, WA, USA). The anti-biofilm effect of the compounds was expressed in the percentage (%) of decrease of biofilm formation.

S. marcescens = assay: Quorum sensing inhibition assay (pigment production); format: cell-based, Serratia marcescens AS-1; details: Serratia marcescens, read-out: Quorum Sensing Inhibition (mm) ± SD
Method: (§6) Concerning the QS inhibition assay, the sensor strain Chromobacterium violaceum CV026 and the AHL producer strain Sphingomonas paucimobilis Ezf 10-17 (EZF) were inoculated as parallel lines, and the AHL producers Chromobacterium violaceum wild-type 85 (wt85) and Serratia marcescens AS-1 were inoculated as a single line. The interaction between the strains and compounds 2–18 was evaluated as the reduction of pigment production, in millimeters (mm) (Table 5) with promethazine (PMZ) as a positive control.
(§7) The QS inhibitory effect of the compounds was examined on the EZF and the sensor CV026 strains, on the wt85 strain, and on S. marcescens. The method used was the parallel inoculation method, where pair combinations of the used sensor strain CV026 and the N-acyl-homoserine lactone (AHL) producing strain EZF were inoculated directly onto the LB*-A agar surface in parallel, at an approximate distance of 5 mm from each other. S. marcescens AS-1 and wt85 were inoculated as a single line. Filter paper disks (7 mm in diameter) were placed on the center of the inoculated line(s) and impregnated with 8 µL of a solution of 10 mM of the compounds. […] The agar plates were incubated at room temperature (20 °C) for 24−48 h. The QS inhibition was accessed visually, through the inhibition of pigment production. The discolored, but intact, bacterial colonies were measured with a ruler.

wt85 = assay: as above; format: cell-based, Chromobacterium violaceum wild-type 85; details: Chromobacterium violaceum, read-out: Quorum Sensing Inhibition (mm) ± SD
Method: as §6, §7

EZF + CV026 = assay: Quorum sensing inhibition assay (pigment production), parallel inoculation; format: cell-based; details: disk with 8 µL of 10 mM solution, read-out: Quorum Sensing Inhibition (mm) ± SD
Method: as §6, §7

[6] = Cytotoxicity in NIH/3T3 cell line (MTT assay); format: cell-based; details: mouse, NIH/3T3 mouse fibroblast cells, read-out: IC50 (µM) ± SD, cytotoxicity
Method: Before each cytotoxicity assay using this cell line, cells were seeded in untreated 96-well flat-bottom microtiter plates, following a 4-hour incubation period in a humidified atmosphere (5% CO2, 95% air) at 37 °C [47]. […] Prior to the assay, the cells were seeded for 4 h using 1 × 10^4 cells/well. […] The plates were incubated for 24 h, after which a solution of MTT in PBS was added to each well and incubated for another 4 h. After this, 100 μL of SDS (10% in a 0.01 M HCl solution) was added to each well and incubated overnight at 37 °C. Doxorubicin was used as a positive control. Cell growth was determined in quadruplicate by measuring OD at λ = 540 nm (reference 630 nm) in a Multiscan EX ELISA reader (Thermo Labsystems, Cheshire, WA, USA). […] (2) 100−ODsample−ODmedium control/ODcell control−ODmedium control×100 […]

E. faecalis B3/101 = assay: Synergy with vancomycin (antibiotic MIC in presence of compound); format: cell-based, Enterococcus faecalis
Text: as §4
The combined effect of the compounds and clinically relevant antimicrobial drugs was evaluated by determining the antibiotic’s MIC in the presence of each compound. […] The antibiotic tested was serially diluted, whereas the concentration of each compound was kept fixed. In the case of compound 12, the concentration used was 8 µg/mL. For all other compounds, the concentration used was 64 µg/mL. Antibiotic MICs were determined as described above.

CTX MIC (antibiotic alone) (E. coli SA/2) | Structure (SMILES) | RFI ± SD (SE03 [1]) | MIC (S. aureus 272123 [2]) [µM] | MIC (SE03 [3]) [µM] | RFI ± SD (S. aureus 272123 [4]) | inhibition at 100 µM (S. aureus ATCC 29213) [%] | inhibition at 100 µM (S. aureus 272123 [5]) [%] | zone of inhibition at 10000 µM (S. marcescens) [mm] | zone of inhibition at 10000 µM (wt85) [mm] | zone of inhibition at 10000 µM (EZF + CV026) [mm] | IC50 at 24 h [6] [µM] | VAN MIC (antibiotic alone) (E. faecalis B3/101)
 | N#CC(C#N)=NNc1cccc(Cl)c1 [CCCP, carbonyl cyanide 3-chlorophenylhydrazone, reference compound] | 0.23 ± 0.04 |  |  |  |  |  |  |  |  |  | 
1124 µM and 512 µg/mL | CO/N=C(\C(=O)N[C@@H]1C(=O)N2C(C(=O)O)=C(COC(C)=O)CS[C@H]12)c1csc(N)n1 [CTX, cefotaxime, reference compound] |  |  |  |  |  |  |  |  |  |  | 
 | CCCOc1ccc(OC)c2c(=O)c3ccccc3sc12 [Compound 4] | −0.10 ± 0.05 | > 100 | > 100 | 0.11 ± 0.26 | 0.17 ± 0.83 | 47.9 ± 1.08 | 0 | 0 | 0 |  | 
 | CCCOc1ccc(NCCc2nc3ccccc3[nH]2)c2c(=O)c3ccccc3sc12 [Compound 5] | −0.20 ± 0.01 | > 100 | > 100 | −0.13 ± 0.04 | 0.37 ± 0.47 | 0 | 0 | 0 | 0 |  | 
 | CCCOc1ccc(NCCc2ccc([N+](=O)[O-])cc2)c2c(=O)c3ccccc3sc12 [Compound 6] | −0.20 ± 0.01 | > 100 | > 100 | 0.09 ± 0.11 | 0 | 0 | 0 | 0 | 0 |  | 
 | CCCOc1ccc(N2CCN(C(C)=O)CC2)c2c(=O)c3ccccc3sc12 [Compound 7] | 0.49 ± 0.11 | > 100 | > 100 | −0.10 ± 0.02 | 0 | 47.1 ± 7.54 | 0 | 0 | 30 ± 0.5 |  | 
 | COc1cccc2c1C(=O)c1c(O)c3c(c(O)c1C2=O)C[C@@](O)(C(=O)CO)C[C@@H]3O[C@H]1C[C@H](N)[C@H](O)[C@H](C)O1 [Doxorubicin, doxorubicin, reference compound] |  |  |  |  |  |  |  |  |  | 12.1 ± 0.81 | 
 | CC(CN1c2ccccc2Sc2ccccc21)N(C)C (stereo not drawn) [PMZ, promethazine, reference compound] |  |  |  |  |  |  | 18 ± 0.8 | 40 ± 0.1 | 41 ± 0.5 |  | 
 | COC(=O)[C@H]1[C@H]2C[C@@H]3c4[nH]c5cc(OC)ccc5c4CCN3C[C@H]2C[C@@H](OC(=O)c2cc(OC)c(OC)c(OC)c2)[C@@H]1OC [Reserpine, reserpine, reference compound] |  |  |  | 0.50 ± 0.04 | 30.4 |  |  |  |  |  | 
 | CN[C@H](CC(C)C)C(=O)N[C@H]1C(=O)N[C@@H](CC(N)=O)C(=O)N[C@H]2C(=O)N[C@H]3C(=O)N[C@H](C(=O)N[C@H](C(=O)O)c4cc(O)cc(O)c4-c4cc3ccc4O)[C@H](O)c3ccc(c(Cl)c3)Oc3cc2cc(c3O[C@@H]2O[C@H](CO)[C@@H](O)[C@H](O)[C@H]2O[C@H]2C[C@](C)(N)[C@H](O)[C@H](C)O2)Oc2ccc(cc2Cl)[C@H]1O [VAN, vancomycin] |  |  |  |  |  |  |  |  |  |  | 707 µM and 1024 µg/mL
